Experimental data reported in ChEMBL document CHEMBL1151247, “Quinazolin-4-one derivatives from Streptomyces isolates” (J Nat Prod, 2004).
Calls of active or inactive are those of the source.

Key:
Assay type in all cases: functional, organism-based
Staphylococcus aureus = assay: Antibacterial activity against Staphylococcus aureus
Candida albicans = assay: Antifungal activity against Candida albicans
Chlorella vulgaris = assay: Antialgal activity against Chlorella vulgaris
Rhizomucor miehei = assay: Antifungal activity against Mucor miehei
Escherichia coli = assay: Antibacterial activity against Escherichia coli
Desmodesmus subspicatus = assay: Antialgal activity against Scenedesmus subspicatus
Bacillus subtilis = assay: Antibacterial activity against Bacillus subtilis
[1] = tested on: Streptomyces viridochromogenes; assay: Antibacterial activity against Streptomyces viridochromogenes
Chlorella sorokiniana = assay: Antialgal activity against Chlorella sorokiniana

Measured: Activity

C[C@@H](O)[C@]1(C)NC(=O)c2ccccc2N1 (relative stereo)
inactive: all assays above

C[C@@H](O)[C@@]1(C)NC(=O)c2ccccc2N1 (relative stereo)
inactive: all assays above
